Source: patent US8974815B2, “Fibrous membrane for biomedical application based on poly(ester-amide)s” (Cornell University, priority 2005, dated 2015)

Tests used:
[1] = In vitro release of 4-amino-TEMPO in PBS medium (ESR); assay type: physicochemical
Experimental: (§1) The in vitro release of 4-amino-TEMPO nitroxyl radicals from electrospun PEA fibers was investigated by immersing ˜300 mg 8-Phe-4 electrospun nano fibrous mat into a glass vial filled with 5 mL of 0.1M phosphate buffer solution of pH=7.42. The 8-Phe-4 nano fibrous mat was pre-loaded with 4-amino-TEMPO at a 10.0 mg 4-amino-TEMPO per g 8-Phe-4 and electrospun from a 39% wt/vol 8-Phe-4 solution in the mixture solvent of chloroform and DMF at volume ratio of 2 to 1. The glass vial was then placed in a water bath shaker maintained at 37° C. and 100 cycles/min. 10 μl of supernant of the vial was taken at a determined time and the amount of 4-amino-TEMPO nitroxyl radicals was measured by electron spin resonance (ESR) as a function of incubation time.
(§2) Three samples were taken for each measurement and the average results were reported. The ESR spectra at X-band were obtained from a Bruker 200D SRC spectrometer operating at 9.6 GHz, using 100 KHz modulation. The ESR signal intensity which is proportional to the mass of 4-amino-TEMPO nitroxyl free radical was obtained by a double integration of the recorded first derivative signals. A linear correlation (γ^2=0.9996) between the ESR signal intensity and the mass of nitroxyl radical ranging from 1.67 μg to 0.05 μg was obtained. The actual amount of 4-amino-TEMPO nitroxyl radicals loaded into the electrospun fibers was also determined by a complete dissolution of 8-Phe-4/4-amino-TEMPO electrospun fibrous membranes in DMF and the actual pre-loaded 4-amino-TEMPO amount within 8-Phe-4 fibers was calculated from the established calibration curve. The nitroxyl radicals released was measured in triplicates and expressed in the percentage of the initial pre-loaded amounts in the 8-Phe-4 fibers.

[2] = molecular target: α-chymotrypsin (Bos taurus, UniProt P00766); assay: In vitro release of 4-amino-TEMPO in α-chymotrypsin solution (ESR); assay type: in vitro ADME
Experimental: as §1, §2
4-amino-TEMPO was physically pre-loaded into the 640 nm 8-Phe-4 electrospun fibers at a loading level of 10.0 mg TEMPO per gram of 8-Phe-4. Since 4-amino-TEMPO is a free radical, the actual amounts of 4-amino-TEMPO loaded into the 8-Phe-4 electrospun nanofibers and its subsequently release from the fibers in either PBS buffer or a α-chymotrypsin solution (0.1 mg/mL α-chymotrypsin) were quantified by ESR.

[3] = Gallium nitrate release from 8P4 fabric (conductivity); assay type: physicochemical; details: from 8P4 fabric at 1.2, 1.0 and 0.2 g gallium nitrate per g 8P4; water extraction
Experimental: In order to determine release profiles of gallium nitrate from the fabric, a calibration curve was prepared as follows: Solutions of known concentrations of gallium nitrate in chloroform (not completely dissolved) were extracted with 10-mL deionized water. The electrical resistance of the aqueous solutions from extraction was measured. A calibration curve was constructed based on conductivity (inverse of measured resistance) and known concentration of gallium nitrate.
Drug release was established at 1, 2, 3, 4, 5, 8, 12, 18 and 28 days by extraction with water and measuring conductivity and generating gallium nitrate release profiles for 1.2 grams of gallium nitrate per gram (8P4), 1.0 gram of gallium nitrate per gram (8P4) and 0.2 am of gallium nitrate per gram (8P4). In each case there was a burst of drug release within the first 5 days.

Row | SMILES | slope of the initial linear part of the release profile ([1]; PBS medium alone, 37° C.) [%/day] | 4-amino-TEMPO still entrapped inside the 8-Phe-4 matrix ([1]; after one month in PBS) | initial burst release, of total loaded nitroxyl radical ([1]; first day, from 640 nm 8-Phe-4 nanofibers, pH 7.42 PBS, 37° C.) | residual nitroxyl radical in dissolved incubated membrane, of initial loading level ([1]; one-month incubated membrane dissolved in DMF, ESR) | release slope in α-chymotrypsin relative to PBS alone [2] | slope of the initial linear part of the release profile ([2]; 0.1 mg/mL α-chymotrypsin solution, 37° C.) [%/day] | incorporated TEMPO released ([2]; within the 1st hr, α-chymotrypsin solution) | time to complete release ([2]; α-chymotrypsin solution) [h] | period of burst of drug release [3] [days]
1 | CC1(C)CC(N)CC(C)(C)N1[O] [4-amino-TEMPO, 4-amino-2,2,6,6-tetramethylpiperadine-1-oxy radical] | 2.0 | more than 60% | about 14% | about 58% | more than 35 times | 72 | more than 23% | ≤ 120 | –
2 | O=[N+]([O-])[O-].O=[N+]([O-])[O-].O=[N+]([O-])[O-].[Ga+3] [gallium nitrate, Gallium (III) nitrate hydrate] | – | – | – | – | – | – | – | – | ≤ 5
